{"source": "patent US20040228872A1", "about": "(priority 2003, published 2004)", "key": {"[1]": {"system": "foreleg flexor muscles", "conditions": "mouse, in vivo"}, "[2]": {"conditions": "in vivo; cited from earlier work"}, "[3]": {"system": "orbicularis oculi muscles", "conditions": "guinea pig, in vivo"}}, "data": [{"molecule": "O=c1c(-c2ccc(O)cc2)coc2cc(O)cc(O)c12", "note": "[genistein, 5,7-dihydroxy-3-(4-hydroxyphenyl)-4H-1-benzopyran-4-one]", "values": [{"measurement": "Grip strength recovery (percent of untreated baseline grip strength)", "setting": "[1]", "result": "retarded"}, {"measurement": "Tolerability of dietary intake", "setting": "[2]", "result": "without obvious ill effects"}, {"measurement": "Delay of time to 50% recovery of blinks (blink amplitude)", "setting": "[3]", "result": "approximately 10 days"}, {"measurement": "Recovery of blinks after surgery", "setting": "[3]", "result": "full recovery within a week"}, {"measurement": "Reduction of blink amplitude after surgery", "setting": "[3]", "result": "≤ 10", "unit": "%"}]}]}
